For 2 molecules, IC50 and Ki results are on record in BindingDB's records for doi:10.1016/j.chembiol.2008.10.017 (University of Toronto, 2008).

Structures are written as SMILES.

For the experiment, the target named is T1, Putative farnesyl pyrophosphate synthase (Cryptosporidium parvum (strain Iowa II), UniProt Q5CR09).
T1 sequence (Q5CR09 whole entry): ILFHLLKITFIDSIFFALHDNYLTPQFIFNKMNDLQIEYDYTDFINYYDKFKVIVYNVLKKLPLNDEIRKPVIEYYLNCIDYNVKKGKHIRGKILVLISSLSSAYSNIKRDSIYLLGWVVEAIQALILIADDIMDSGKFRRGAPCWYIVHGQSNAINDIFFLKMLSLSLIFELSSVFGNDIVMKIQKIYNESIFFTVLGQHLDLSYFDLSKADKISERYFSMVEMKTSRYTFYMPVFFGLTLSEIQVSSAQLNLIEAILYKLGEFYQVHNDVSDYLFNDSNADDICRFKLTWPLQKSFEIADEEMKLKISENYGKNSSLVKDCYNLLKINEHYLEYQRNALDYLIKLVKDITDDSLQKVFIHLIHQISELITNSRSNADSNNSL
The experiment can be described thus: Enzymatic Assay. The following applies: pH 7.7; 37 °C. As to the method:
Enzymatic assay using CpNPPPS was assayed using Reed and Rilling method with some modification.

As a reminder, the IC50 is the midpoint of a concentration-inhibition curve. What is called Ki is a dissociation constant, usually derived from enzyme kinetics or from competition with a known ligand. Low values mean higher affinity, high ones lower affinity. `O=P(O)(O)C(O)(Cn1ccnc1)P(=O)(O)O` had a half-inhibitory concentration (IC50) of 30.1 nM and a Ki of 0.05 nM.
On the same counts, the results for `O=P(O)(O)C(O)(Cc1cccnc1)P(=O)(O)O` [JMC515594 Compound 64] are 45.7 nM and 0.38 nM.
